Source: PubChem BioAssay (NCI)
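Interpolation was linear, between the two tested concentrations surrounding the appropriate level; five concentrations were tested over 48 hours in 96-well plates. At the TGI there is no net growth.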

Assays:
Assay in all cases: NCI tumour cell line growth inhibition, 48 h
EKVX NSCLC = test system: EKVX NSCLC
ACHN renal = test system: ACHN renal
A549 NSCLC = test system: A549 NSCLC
DU-145 prostate = test system: DU-145 prostate
CCRF-CEM leukemia = test system: CCRF-CEM leukemia
MDA-MB-231 breast = test system: MDA-MB-231 breast
SR leukemia = test system: SR leukemia
SK-OV-3 ovarian = test system: SK-OV-3 ovarian
HCT-116 colon = test system: HCT-116 colon
SNB-75 CNS = test system: SNB-75 CNS
NCI-H460 lung = test system: NCI-H460 lung
NCI-H522 lung = test system: NCI-H522 lung
MCF7 breast = test system: MCF7 breast
SW-620 colon = test system: SW-620 colon
IGROV1 ovarian = test system: IGROV1 ovarian
T-47D breast = test system: T-47D breast
NCI/ADR-RES ovarian = test system: NCI/ADR-RES ovarian
SF-295 CNS = test system: SF-295 CNS
UACC-62 melanoma = test system: UACC-62 melanoma
RXF 393 renal = test system: RXF 393 renal
UACC-257 melanoma = test system: UACC-257 melanoma
U251 CNS = test system: U251 CNS
SN12C renal = test system: SN12C renal
UO-31 renal = test system: UO-31 renal
MDA-N = test system: MDA-N
CAKI-1 renal = test system: CAKI-1 renal
SK-MEL-5 melanoma = test system: SK-MEL-5 melanoma
SNB-19 CNS = test system: SNB-19 CNS
OVCAR-3 ovarian = test system: OVCAR-3 ovarian
HT29 colon = test system: HT29 colon
M14 melanoma = test system: M14 melanoma
OVCAR-5 ovarian = test system: OVCAR-5 ovarian
NCI-H23 lung = test system: NCI-H23 lung
SF-268 CNS = test system: SF-268 CNS
COLO 205 colon = test system: COLO 205 colon
HCT-15 colon = test system: HCT-15 colon
OVCAR-4 ovarian = test system: OVCAR-4 ovarian
NCI-H226 lung = test system: NCI-H226 lung
HOP-92 NSCLC = test system: HOP-92 NSCLC
MDA-MB-435 = test system: MDA-MB-435
SK-MEL-2 melanoma = test system: SK-MEL-2 melanoma
PC-3 prostate = test system: PC-3 prostate
786-0 renal = test system: 786-0 renal
SF-539 CNS = test system: SF-539 CNS
LOX IMVI melanoma = test system: LOX IMVI melanoma
A498 renal = test system: A498 renal
HL-60(TB) leukemia = test system: HL-60(TB) leukemia
BT-549 breast = test system: BT-549 breast
MOLT-4 leukemia = test system: MOLT-4 leukemia
RPMI-8226 leukemia = test system: RPMI-8226 leukemia
KM12 colon = test system: KM12 colon
OVCAR-8 ovarian = test system: OVCAR-8 ovarian
TK-10 renal = test system: TK-10 renal
HS 578T breast = test system: HS 578T breast
MALME-3M melanoma = test system: MALME-3M melanoma
SK-MEL-28 melanoma = test system: SK-MEL-28 melanoma
HOP-62 NSCLC = test system: HOP-62 NSCLC
K-562 leukemia = test system: K-562 leukemia

Measured: TGI

COc1cc2c3c(c1O)-c1c(ccc(OC)c1OC)CC3N(C)CC2 (configuration not stated)
not listed: MALME-3M melanoma | SK-MEL-28 melanoma | HOP-62 NSCLC | K-562 leukemia
> 100 µM: all other assays above

COc1ccc2cc(C(=O)CCC(=O)O)ccc2c1
> 100 µM: all assays above
